Assay [1] deals with T1, Tyrosine-protein phosphatase non-receptor type 7 (Homo sapiens, UniProt P35236).
T1 sequence (P35236 whole entry): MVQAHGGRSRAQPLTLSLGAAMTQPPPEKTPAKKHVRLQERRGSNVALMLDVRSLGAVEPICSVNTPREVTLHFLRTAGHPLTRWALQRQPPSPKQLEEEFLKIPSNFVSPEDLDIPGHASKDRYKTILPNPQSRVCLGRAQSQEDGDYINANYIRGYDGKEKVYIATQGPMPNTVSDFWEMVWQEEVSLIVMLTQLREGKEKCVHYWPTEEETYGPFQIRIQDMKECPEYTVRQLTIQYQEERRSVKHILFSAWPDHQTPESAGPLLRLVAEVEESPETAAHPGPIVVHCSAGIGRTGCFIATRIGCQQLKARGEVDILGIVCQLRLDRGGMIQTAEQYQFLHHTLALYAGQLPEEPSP
The class given is functional.

For assay [2], the target named is T2, Tyrosine-protein phosphatase non-receptor type 22 (Homo sapiens, UniProt Q9Y2R2).
T2 sequence (Q9Y2R2 whole entry): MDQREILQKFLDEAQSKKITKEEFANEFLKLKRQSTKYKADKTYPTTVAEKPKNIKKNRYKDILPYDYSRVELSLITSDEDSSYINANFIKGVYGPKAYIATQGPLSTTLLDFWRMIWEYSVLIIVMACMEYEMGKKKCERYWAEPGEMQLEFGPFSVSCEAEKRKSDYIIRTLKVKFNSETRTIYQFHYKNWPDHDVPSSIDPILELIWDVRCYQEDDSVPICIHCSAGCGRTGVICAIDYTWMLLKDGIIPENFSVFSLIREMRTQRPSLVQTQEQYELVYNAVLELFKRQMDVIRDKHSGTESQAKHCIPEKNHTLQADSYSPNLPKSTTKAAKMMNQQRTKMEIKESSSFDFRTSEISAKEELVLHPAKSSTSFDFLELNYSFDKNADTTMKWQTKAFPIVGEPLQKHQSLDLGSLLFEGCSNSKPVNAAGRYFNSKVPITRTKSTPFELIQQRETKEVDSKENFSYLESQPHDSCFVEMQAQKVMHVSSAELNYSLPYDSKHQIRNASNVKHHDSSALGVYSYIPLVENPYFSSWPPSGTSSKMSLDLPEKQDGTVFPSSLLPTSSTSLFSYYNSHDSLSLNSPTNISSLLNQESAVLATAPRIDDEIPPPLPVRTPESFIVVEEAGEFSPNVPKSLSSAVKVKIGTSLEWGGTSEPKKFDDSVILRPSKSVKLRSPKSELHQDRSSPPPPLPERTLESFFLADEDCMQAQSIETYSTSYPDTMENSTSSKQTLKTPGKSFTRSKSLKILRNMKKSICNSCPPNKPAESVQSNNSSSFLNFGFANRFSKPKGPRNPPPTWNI
In kind it is functional.

Assay [3] concerns the target T2, Tyrosine-protein phosphatase non-receptor type 22. In kind it is functional. This is another data set of the same source.
Assay [4] is described as follows: HEK-293T viability loss after treatment – luminescence, T-cell screen hits, cytotoxicity control for TCR NF-kB inhibitor project, dose response (AID 489026).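 Also: cells exposed to compound about 14 hours before the viability readout.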 The class given is functional, cell-based.
The nature of assay [5]: Intein inhibitors as potential Tuberculosis drugs, a cytotoxicity screen. [Related pubchem assays (depositor defined):AID2221, AID2223, AID434968, AID435010, AID449749, AID449750, AID489010]. The class given is functional.
For assay [6], the target named is T3, Replicative DNA helicase DnaB (Mycobacterium tuberculosis, UniProt P9WMR3).
T3 sequence (P9WMR3 whole entry): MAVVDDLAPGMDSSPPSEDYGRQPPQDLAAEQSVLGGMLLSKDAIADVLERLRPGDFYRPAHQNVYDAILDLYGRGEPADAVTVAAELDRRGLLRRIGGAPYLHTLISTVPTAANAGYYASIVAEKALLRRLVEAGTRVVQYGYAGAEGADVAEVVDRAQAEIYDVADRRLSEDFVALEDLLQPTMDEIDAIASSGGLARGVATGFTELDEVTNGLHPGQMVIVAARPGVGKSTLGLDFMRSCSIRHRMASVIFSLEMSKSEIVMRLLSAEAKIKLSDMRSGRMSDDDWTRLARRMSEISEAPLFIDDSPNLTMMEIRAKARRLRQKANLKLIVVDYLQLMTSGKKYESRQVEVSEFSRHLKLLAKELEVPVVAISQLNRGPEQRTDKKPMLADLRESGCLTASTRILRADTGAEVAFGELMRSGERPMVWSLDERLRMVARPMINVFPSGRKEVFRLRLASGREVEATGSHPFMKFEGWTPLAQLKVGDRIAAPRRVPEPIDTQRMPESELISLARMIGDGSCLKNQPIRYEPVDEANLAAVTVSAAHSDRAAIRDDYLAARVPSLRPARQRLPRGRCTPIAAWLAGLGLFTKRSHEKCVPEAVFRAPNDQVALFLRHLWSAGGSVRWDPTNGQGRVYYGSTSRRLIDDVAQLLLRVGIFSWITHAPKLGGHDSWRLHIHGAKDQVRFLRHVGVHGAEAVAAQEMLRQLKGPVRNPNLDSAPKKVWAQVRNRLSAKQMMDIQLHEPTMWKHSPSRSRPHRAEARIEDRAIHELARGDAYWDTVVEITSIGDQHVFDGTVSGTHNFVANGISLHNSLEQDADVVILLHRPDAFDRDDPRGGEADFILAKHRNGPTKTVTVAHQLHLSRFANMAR
Put plainly: DnaB intein splicing inhibitors, dose response, biochemical, cell-free fluorescence (AID 449749). The class given is functional.

The next assay has as its target T4, Protein RecA (Mycobacterium tuberculosis, UniProt P9WHJ3).
T4 sequence (P9WHJ3 whole entry): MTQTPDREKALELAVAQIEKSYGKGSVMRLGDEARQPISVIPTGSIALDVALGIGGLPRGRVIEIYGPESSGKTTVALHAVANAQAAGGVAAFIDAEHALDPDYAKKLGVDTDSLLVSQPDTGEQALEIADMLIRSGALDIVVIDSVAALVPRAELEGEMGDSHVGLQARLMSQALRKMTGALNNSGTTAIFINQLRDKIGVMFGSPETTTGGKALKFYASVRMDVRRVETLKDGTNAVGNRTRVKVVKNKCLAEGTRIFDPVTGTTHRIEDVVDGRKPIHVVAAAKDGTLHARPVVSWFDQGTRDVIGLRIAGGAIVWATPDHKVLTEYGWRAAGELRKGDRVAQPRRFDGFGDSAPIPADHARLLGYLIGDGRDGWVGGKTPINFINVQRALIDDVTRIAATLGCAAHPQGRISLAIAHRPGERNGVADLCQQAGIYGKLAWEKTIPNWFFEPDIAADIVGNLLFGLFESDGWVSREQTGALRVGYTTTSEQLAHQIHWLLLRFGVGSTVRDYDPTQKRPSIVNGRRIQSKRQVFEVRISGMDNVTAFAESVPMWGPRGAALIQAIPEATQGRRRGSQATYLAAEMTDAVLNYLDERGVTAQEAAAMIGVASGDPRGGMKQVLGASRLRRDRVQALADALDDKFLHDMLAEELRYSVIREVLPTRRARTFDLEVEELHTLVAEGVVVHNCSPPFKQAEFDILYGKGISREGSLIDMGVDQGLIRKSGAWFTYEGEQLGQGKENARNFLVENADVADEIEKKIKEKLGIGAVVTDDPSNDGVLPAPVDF
Put plainly: Fluorescence Cell-Free Homogeneous Dose Retest to Identify Inhibitors of RecA-Intein Splicing Activity. [Related pubchem assays (depositor defined):AID2097, AID2223, AID489010, AID492950]. In kind it is functional.

The target in assay [7] is Voltage-dependent T-type calcium channel subunit alpha-1H (Homo sapiens, UniProt O95180). The class given is functional.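 Also: channel activity triggered by adding a high calcium stimulation buffer.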
Sequence of Voltage-dependent T-type calcium channel subunit alpha-1H (O95180 whole entry): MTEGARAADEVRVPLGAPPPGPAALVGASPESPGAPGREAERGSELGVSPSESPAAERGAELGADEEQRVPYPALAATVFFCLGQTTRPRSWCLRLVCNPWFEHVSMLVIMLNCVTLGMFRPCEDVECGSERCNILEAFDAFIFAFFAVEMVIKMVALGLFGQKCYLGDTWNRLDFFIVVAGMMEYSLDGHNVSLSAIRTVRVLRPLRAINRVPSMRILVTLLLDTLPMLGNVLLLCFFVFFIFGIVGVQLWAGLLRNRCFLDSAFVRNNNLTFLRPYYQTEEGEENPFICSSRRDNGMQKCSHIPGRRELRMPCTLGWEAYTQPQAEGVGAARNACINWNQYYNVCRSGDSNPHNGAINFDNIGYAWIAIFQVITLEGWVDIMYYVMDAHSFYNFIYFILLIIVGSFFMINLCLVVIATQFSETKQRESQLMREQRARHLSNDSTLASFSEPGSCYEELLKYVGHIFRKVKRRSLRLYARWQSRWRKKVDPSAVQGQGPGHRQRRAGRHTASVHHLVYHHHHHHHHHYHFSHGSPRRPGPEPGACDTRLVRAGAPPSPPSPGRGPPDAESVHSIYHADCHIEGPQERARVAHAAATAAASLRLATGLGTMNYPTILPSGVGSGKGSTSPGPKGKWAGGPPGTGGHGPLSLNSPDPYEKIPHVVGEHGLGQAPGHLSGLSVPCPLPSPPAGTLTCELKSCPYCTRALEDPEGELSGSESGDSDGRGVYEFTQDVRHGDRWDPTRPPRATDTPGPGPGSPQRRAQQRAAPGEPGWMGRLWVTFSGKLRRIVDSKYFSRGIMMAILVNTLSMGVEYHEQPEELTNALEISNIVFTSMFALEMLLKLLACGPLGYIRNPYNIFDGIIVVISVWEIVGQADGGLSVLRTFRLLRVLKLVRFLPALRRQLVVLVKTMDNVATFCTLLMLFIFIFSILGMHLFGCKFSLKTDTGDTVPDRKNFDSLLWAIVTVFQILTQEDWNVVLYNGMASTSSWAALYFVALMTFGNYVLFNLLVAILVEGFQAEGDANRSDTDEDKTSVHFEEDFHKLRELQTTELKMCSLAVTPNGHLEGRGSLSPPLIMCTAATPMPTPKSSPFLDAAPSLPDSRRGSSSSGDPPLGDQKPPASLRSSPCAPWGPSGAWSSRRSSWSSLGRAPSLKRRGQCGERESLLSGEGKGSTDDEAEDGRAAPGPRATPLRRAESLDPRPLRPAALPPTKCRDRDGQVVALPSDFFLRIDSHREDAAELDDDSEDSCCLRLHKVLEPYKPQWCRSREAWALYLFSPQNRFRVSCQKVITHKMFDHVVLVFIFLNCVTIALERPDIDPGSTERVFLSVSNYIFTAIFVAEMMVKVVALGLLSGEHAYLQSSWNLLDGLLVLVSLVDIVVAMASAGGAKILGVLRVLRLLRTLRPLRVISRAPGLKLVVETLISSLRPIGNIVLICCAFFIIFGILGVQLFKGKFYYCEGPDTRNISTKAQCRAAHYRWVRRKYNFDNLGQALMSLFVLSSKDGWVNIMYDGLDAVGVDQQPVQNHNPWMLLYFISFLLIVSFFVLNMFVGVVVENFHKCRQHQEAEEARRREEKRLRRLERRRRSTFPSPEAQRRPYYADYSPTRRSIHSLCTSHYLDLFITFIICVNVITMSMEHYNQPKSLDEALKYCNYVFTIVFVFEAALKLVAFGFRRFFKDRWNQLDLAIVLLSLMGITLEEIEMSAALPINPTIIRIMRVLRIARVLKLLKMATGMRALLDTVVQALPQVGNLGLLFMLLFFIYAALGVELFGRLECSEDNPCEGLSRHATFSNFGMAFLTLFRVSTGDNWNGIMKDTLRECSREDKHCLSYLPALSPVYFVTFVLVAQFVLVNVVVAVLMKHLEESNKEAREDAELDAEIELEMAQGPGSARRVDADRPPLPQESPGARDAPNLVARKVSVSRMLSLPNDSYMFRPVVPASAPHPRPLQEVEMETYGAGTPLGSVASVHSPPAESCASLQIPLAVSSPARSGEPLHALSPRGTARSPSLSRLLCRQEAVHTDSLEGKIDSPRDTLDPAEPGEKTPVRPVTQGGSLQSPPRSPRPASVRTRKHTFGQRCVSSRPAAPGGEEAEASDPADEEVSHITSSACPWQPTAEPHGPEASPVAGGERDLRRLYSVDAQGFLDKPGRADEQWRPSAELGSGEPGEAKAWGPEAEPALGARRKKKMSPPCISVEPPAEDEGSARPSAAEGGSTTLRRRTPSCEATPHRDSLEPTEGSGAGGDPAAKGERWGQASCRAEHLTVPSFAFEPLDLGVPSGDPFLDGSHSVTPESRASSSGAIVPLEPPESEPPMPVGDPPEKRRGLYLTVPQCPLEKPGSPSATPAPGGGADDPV
In assay [8] the target is T5, Short transient receptor potential channel 4 (Mus musculus, UniProt Q9QUQ5).
T5 sequence (Q9QUQ5 whole entry): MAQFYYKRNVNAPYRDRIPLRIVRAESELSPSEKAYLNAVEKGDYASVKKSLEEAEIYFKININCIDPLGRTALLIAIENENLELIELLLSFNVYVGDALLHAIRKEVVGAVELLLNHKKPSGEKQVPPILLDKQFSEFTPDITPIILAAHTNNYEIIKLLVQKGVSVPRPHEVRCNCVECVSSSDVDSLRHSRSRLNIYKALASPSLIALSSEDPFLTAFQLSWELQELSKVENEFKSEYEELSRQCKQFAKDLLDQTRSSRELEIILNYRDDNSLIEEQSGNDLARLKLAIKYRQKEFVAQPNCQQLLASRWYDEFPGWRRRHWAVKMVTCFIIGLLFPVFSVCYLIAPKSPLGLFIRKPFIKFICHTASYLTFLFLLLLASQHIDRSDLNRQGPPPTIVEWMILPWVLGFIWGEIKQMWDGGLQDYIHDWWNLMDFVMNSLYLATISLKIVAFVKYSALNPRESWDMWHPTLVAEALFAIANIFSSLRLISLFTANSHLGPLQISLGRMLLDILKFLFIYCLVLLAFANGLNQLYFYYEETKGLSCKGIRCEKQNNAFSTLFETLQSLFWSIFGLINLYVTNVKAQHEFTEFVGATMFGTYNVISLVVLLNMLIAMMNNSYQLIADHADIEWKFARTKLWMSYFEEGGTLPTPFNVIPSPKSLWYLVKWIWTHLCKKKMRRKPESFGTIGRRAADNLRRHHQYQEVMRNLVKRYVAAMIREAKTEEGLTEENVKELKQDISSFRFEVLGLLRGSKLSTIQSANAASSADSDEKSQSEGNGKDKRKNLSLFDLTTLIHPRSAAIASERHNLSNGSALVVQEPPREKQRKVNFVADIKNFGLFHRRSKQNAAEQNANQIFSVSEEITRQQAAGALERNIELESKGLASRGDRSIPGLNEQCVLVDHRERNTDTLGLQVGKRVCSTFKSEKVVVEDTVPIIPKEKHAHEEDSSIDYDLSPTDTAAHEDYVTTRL
In words: block of DAMGO-driven TRPC4 calcium entry – cell-based, HEK293 TRPC4/mu-opioid, Fluo-4 calcium, dose response (AID 434942).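 Also: potency of inhibitors blocking the TRPC4 calcium response.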 The class given is functional.

The target of assay [9] is T6, E3 ubiquitin-protein ligase XIAP (Homo sapiens, UniProt P98170). Put plainly: Counter Screen using XIAP-Bir3 for Chemical Antagonists of Bir1/2 domains of IAP-family anti-apoptotic proteins. [Related pubchem assays (depositor defined):AID1018, AID1449, AID1514, AID1638, AID1749, AID1750, AID488957, AID488963].
T6 sequence (P98170 whole entry): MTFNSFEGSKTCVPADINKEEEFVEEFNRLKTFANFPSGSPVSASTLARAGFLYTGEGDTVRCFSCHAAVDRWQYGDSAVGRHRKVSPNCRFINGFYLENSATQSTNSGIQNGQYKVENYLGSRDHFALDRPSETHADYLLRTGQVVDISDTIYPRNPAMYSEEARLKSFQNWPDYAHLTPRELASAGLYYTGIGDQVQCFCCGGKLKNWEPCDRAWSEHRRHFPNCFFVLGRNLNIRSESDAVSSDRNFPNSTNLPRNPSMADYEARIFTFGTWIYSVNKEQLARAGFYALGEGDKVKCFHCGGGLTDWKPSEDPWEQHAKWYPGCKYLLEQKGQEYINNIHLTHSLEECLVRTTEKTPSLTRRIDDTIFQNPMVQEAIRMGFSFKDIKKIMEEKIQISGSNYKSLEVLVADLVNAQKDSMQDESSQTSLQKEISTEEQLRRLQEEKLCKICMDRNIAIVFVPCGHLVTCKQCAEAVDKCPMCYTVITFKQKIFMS
The target of assay [10] is T6, E3 ubiquitin-protein ligase XIAP. In words: small molecules displacing peptide from XIAP – biochemical, IAP family, fluorescence polarization (AID 1018). In kind it is functional.
The target in assay [11] is Alkaline phosphatase, placental type (Homo sapiens, UniProt P05187). In words: human placental alkaline phosphatase inhibition – biochemical, luminescence, confirmation (AID 1512). The class given is functional.
Sequence of Alkaline phosphatase, placental type (P05187 whole entry): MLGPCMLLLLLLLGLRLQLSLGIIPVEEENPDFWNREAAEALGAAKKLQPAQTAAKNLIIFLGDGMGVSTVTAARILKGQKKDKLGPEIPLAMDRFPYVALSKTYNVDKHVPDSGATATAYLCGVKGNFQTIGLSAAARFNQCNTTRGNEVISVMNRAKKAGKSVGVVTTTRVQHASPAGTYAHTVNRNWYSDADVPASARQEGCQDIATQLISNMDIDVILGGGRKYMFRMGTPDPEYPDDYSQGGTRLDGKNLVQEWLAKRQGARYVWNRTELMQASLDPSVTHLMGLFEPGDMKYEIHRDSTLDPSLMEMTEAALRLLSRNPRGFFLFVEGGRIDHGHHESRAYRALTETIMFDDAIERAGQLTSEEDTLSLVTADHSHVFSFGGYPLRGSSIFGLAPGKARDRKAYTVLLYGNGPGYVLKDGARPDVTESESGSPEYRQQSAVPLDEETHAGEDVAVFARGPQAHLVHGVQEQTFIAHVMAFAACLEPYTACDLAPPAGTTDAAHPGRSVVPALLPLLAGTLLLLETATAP
For assay [12], the target named is T7, Alkaline phosphatase, tissue-nonspecific isozyme (Homo sapiens, UniProt P05186).
T7 sequence (P05186 whole entry): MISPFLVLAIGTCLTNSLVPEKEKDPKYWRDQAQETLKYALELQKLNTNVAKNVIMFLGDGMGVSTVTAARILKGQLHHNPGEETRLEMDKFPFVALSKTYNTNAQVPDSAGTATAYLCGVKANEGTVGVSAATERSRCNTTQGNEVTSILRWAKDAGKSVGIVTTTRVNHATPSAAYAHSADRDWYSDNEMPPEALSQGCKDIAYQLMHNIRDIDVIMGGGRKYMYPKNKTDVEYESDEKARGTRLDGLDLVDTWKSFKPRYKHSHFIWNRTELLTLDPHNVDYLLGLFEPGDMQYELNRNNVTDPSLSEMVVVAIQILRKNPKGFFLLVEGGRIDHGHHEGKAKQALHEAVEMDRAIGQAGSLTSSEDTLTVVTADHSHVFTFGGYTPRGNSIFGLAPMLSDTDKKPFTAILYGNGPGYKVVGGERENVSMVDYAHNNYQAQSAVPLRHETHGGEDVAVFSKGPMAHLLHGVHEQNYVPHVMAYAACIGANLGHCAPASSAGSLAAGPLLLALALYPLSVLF
Put plainly: potency against alkaline phosphatase TNAP – biochemical, luminescent, dose response, SAR follow-up (AID 1056).

The structures appear in SMILES notation. Activity calls are given as the source filed them.
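For CC50 in this document: cells exposed to compound for 72 hours before luminescence readout.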

What is called IC50 is the concentration that inhibits the measured activity by half. Turning to `O=C(NCc1ccco1)c1ccc2ccccc2n1`, the IC50 in assay [1], in assay [2] and in assay [3] was > 79.4 µM (inactive) throughout.
As usually defined, the CC50 is the concentration at which the toxic effect on the cells reaches its halfway point. The AC50 is the concentration giving half of the maximal activity seen. One may read the EC50 as the concentration that produces a half-maximal response. Take `COc1cc(NCCCCCCCN)c2ncccc2c1`: the IC50 in [4] was 46.9 µM (inactive). For the same compound, the CC50 in assay [5] is > 40 µM (active). For the same compound, the AC50 in [6] is 2.12 µM (active). Also, on Protein RecA, the EC50 is 0.401 µM (active).
For the compound `Cc1oc(-c2ccc(Cl)cc2)nc1CN1CCC(C(=O)NCc2cccs2)CC1`, the values for the concentration giving a half-maximal response (EC50) in [7] and in assay [8] were 4.32 µM (active) and 1.5 µM (active), respectively.
Take `CN(CC(=O)O)c1ccc(C(F)(F)F)cc1[N+](=O)[O-]`: the IC50 in [9] was > 100 µM (inactive); in assay [10], > 100 µM (not active).
For `COc1ccccc1CNC(=O)COC(=O)Cc1ccsc1` the same measures were > 100 µM (inactive) and > 100 µM (not active).
For `Cc1cc(NC(=O)c2cc([N+](=O)[O-])cc([N+](=O)[O-])c2)n(-c2ccccc2)n1` the same measures were > 100 µM (inactive) and > 100 µM (not active).
With `Cc1ccc(S(=O)(=O)c2nc(-c3ccccc3)oc2NCCN2CCOCC2)cc1`, the results for the IC50 in assay [1], in assay [2] and in assay [3] were > 79.4 µM (inactive), 75.3 µM (active) and > 79.4 µM (inactive), respectively.
Regarding `C=CCn1c(SCC(=O)c2ccc(O)c(O)c2)nnc1-c1ccc(OC)cc1`, the results for the IC50 in [11] and in assay [12] were 13.6 µM (active) and > 100 µM (inactive), respectively.
For the compound `Cc1ccc(-c2nnc(SCC(=O)c3ccc(O)c(O)c3)n2Cc2ccco2)cc1`, the concentration for half-maximal inhibition (IC50) is 5.32 µM (active) in assay [11] and 19.2 µM (active) in assay [12].
Turning to `Cc1cc(C(=O)NCc2ccc(O)c(O)c2)oc1C`, the values for the IC50 in assay [11] and in assay [12] were 52.7 µM (active) and > 100 µM (inactive), respectively.

For the origin of these results see ChEMBL document CHEMBL1201862, “PubChem BioAssay data set” (2004).
